The results in this text go back to patent publication US20200246316A1, “METHODS OF TREATING POST-SURGICAL PAIN WITH A THIAZOLINE ANTI-HYPERALGESIC AGENT” (CERSCI THERAPEUTICS, INC., priority 2019, published 2020).

Experiment [1] has as its system rat hind paw incision model. Briefly: Brennan incisional pain model, prophylactic paradigm. The class given is in vivo. The settings on record: single pre-surgical dose; 24 h, 48 h, 72 h post dose; FIG. 11. The text has this:
(§1) Two incisional pain models were used to assess Compound 1 effects on hyperalgesia. The first model is referred to as the Brennan model in which, under anesthesia, a 1 cm longitudinal incision to the skin and underlying fascia of a rat hindpaw is made. The second is a variation but is a more invasive procedure in which the skin and muscle are spread apart using forceps which creates a longer-lasting hypersensitivity.
Using the Brennan protocol and a prophylactic paradigm, Compound 1 (3 doses given PO) or vehicle was administered 15 min prior to incision. At the 24-, 48-, and 72-h time points post-incision, mechanical thresholds were obtained (manual von Frey filament, using up/down method).
In a subsequent experiment, the same paradigm was used with Compound 1 administered at a dose of 30 mg/kg PO along with positive control group consisting of celecoxib (30 mg/kg PO), morphine (10 mg/kg SC), and vehicle.

In experiment [2] the test system is established incision-induced mechanical hyperalgesia. Briefly: Brennan incisional pain model, treatment paradigm. In kind it is in vivo, rat. The following applies: morphine 3 mg/kg SC.
Source text: as §1
Using the Brennan protocol and a treatment paradigm in rat, Compound 1 (10 and 30 mg/kg PO), morphine (3 mg/kg SC) or vehicle were administered daily at 24 h post-incision, and again at 48 and 72 h post-incision. Mechanical thresholds were obtained at 1 h and 2 h post-dose in all cohorts on all days.

Regarding `Cc1ccc(-c2cc(C(F)(F)F)nn2-c2ccc(S(N)(=O)=O)cc2)cc1` [celecoxib, reference compound], in experiment [1], the “effect on development of mechanical hyperalgesia” value is “no effect”.
As for `CN1CC[C@]23c4c5ccc(O)c4O[C@H]2[C@@H](O)C=C[C@H]3[C@H]1C5` [morphine, reference compound], in experiment [1], the “effect on development of mechanical hyperalgesia” value is “no effect”. Further, the “effect on established mechanical hyperalgesia (overall)” value in experiment [2] (Compound 1 10 and 30 mg/kg PO daily, FIG. 12) was “analgesic at t=1 h on d1, and at t=1 h and 2 h post-dose on d2 and d3”. Moreover, in experiment [2] (Day 1, 2-h time point), the analgesia entry is “this effect waned”. In addition, the mechanical threshold is listed as 45 g in experiment [2] (Day 1, 1 h post-dose) and under 15 g in experiment [2] (Day 2 prior to dosing (Pre-Drug (D2))). In addition, the hyperalgesia entry in experiment [2] (Day 2, 1-h time point) is reported as “not hyperalgesic”; in experiment [2] (Day 2, 2 h) it was “mild hyperalgesia”.
